Results reported in ChEMBL document CHEMBL1134713, “Synthesis of a novel series of cytotoxic bisindole alkaloids” (Bioorg Med Chem Lett, 2001).

How the values were obtained:
L1210 [1] = experiment: Cytotoxicity against L1210 cell proliferation, measured using microculture tetrazolium assay (MTA); assay type: functional, cell-based, Mus musculus
L1210 [2] = experiment: Evaluated for the dose-dependent accumulation and percent of cells in G1 phase was determined at a concentration of 20 uM; assay type: functional, Mus musculus
L1210 [3] = experiment: Evaluated for the dose-dependent accumulation and percent of cells in G1 phase was determined at a concentration of 10 uM; assay type: functional, Mus musculus
L1210 [4] = experiment: Evaluated for the dose-dependent accumulation and percent of cells in G1 phase was determined at a concentration of 50 uM; assay type: functional, Mus musculus
L1210 [5] = experiment: Evaluated for the dose-dependent accumulation and percent of cells in G1 phase was determined at a concentration of 5 uM; assay type: functional, Mus musculus
L1210 [6] = experiment: Compound was evaluated for the percent stimulation of cell proliferation at a concentration of 10 uM; assay type: functional, Mus musculus
L1210 [7] = experiment: Evaluated for the dose-dependent accumulation and percent of cells in G1 phase was determined at a concentration of 25 uM; assay type: functional, Mus musculus

| Structure (SMILES) | IC50 (L1210 [1]; Mus musculus, L1210) [µM] | other results |
| --- | --- | --- |
| CC[C@]12C=C(C(=O)OC)c3c(CC4Nc5ccc(OC)cc5C(OC)C4c4c5n(c6ccccc46)[C@H]4N(O)CCC[C@@]4(CC)C=C5C(=O)OC)c4ccccc4n3[C@H]1N(O)CCC2 (some centres not stated) | 1.7 | Cells (L1210 [2]): 81% |
| CC[C@]12C=C(C(=O)OC)c3c(CC4Nc5ccc(Cl)cc5CC4c4c5n(c6ccccc46)[C@H]4N(O)CCC[C@@]4(CC)C=C5C(=O)OC)c4ccccc4n3[C@H]1N(O)CCC2 (some centres not stated) | 3.6 | Cells (L1210 [3]): 77% |
| CC[C@]12C=C(C(=O)OC)c3c(CC4Nc5ccccc5CC4c4c5n(c6ccccc46)[C@H]4N(O)CCC[C@@]4(CC)C=C5C(=O)OC)c4ccccc4n3[C@H]1N(O)CCC2 (stereo in doubt; 6) | – | IC50 (L1210 [1]; l1210): 71 µM; Cells (L1210 [4]): 4.5% |
| CC[C@]12C=C(C(=O)OC)c3c(CC4Nc5ccc(F)cc5CC4c4c5n(c6ccccc46)[C@H]4N(O)CCC[C@@]4(CC)C=C5C(=O)OC)c4ccccc4n3[C@H]1N(O)CCC2 (some centres not stated) | 1.8 | Cells (L1210 [5]): 81% |
| CC[C@]12C=C(C(=O)OC)c3c(CC4Nc5cc(Cl)cc(Cl)c5C(Nc5cc(Cl)cc(Cl)c5)C4c4c5n(c6ccccc46)[C@H]4N(O)CCC[C@@]4(CC)C=C5C(=O)OC)c4ccccc4n3[C@H]1N(O)CCC2 (some centres not stated) | > 10 | Stimulation (L1210 [6]): 156% |
| CC[C@]12C=C(C(=O)OC)c3c(CC4Nc5ccccc5CC4c4c5n(c6ccccc46)[C@H]4N(O)CCC[C@@]4(CC)C=C5C(=O)OC)c4ccccc4n3[C@H]1N(O)CCC2 (stereo in doubt; 1) | – | Cells (L1210 [7]): 80%; IC50 (L1210 [1]; l1210): 2.7 µM |
| CC[C@]12C=C(C(=O)OC)c3c(CC4Nc5ccc(O)cc5C(OC)C4c4c5n(c6ccccc46)[C@H]4N(O)CCC[C@@]4(CC)C=C5C(=O)OC)c4ccccc4n3[C@H]1N(O)CCC2 (some centres not stated) | 0.9 | – |
| CC[C@]12C=C(C(=O)OC)c3c(CC4Nc5cc(Cl)cc(Cl)c5CC4c4c5n(c6ccccc46)[C@H]4N(O)CCC[C@@]4(CC)C=C5C(=O)OC)c4ccccc4n3[C@H]1N(O)CCC2 (some centres not stated) | > 10 | – |
| CC[C@]12C=C(C(=O)OC)c3c(CC4Nc5ccc(OC)cc5CC4c4c5n(c6ccccc46)[C@H]4N(O)CCC[C@@]4(CC)C=C5C(=O)OC)c4ccccc4n3[C@H]1N(O)CCC2 (some centres not stated) | 2.2 | Cells (L1210 [2]): 69% |
| CCOC(=O)c1ccc(NC2c3cc(C(=O)OCC)ccc3NC(Cc3c4n(c5ccccc35)[C@H]3N(O)CCC[C@@]3(CC)C=C4C(=O)OC)C2c2c3n(c4ccccc24)[C@H]2N(O)CCC[C@@]2(CC)C=C3C(=O)OC)cc1 (some centres not stated) | > 10 | Stimulation (L1210 [6]): 118% |
| CC[C@]12C=C(C(=O)OC)c3c(CC4Nc5ccc(Cl)cc5C(Nc5ccc(Cl)cc5)C4c4c5n(c6ccccc46)[C@H]4N(O)CCC[C@@]4(CC)C=C5C(=O)OC)c4ccccc4n3[C@H]1N(O)CCC2 (some centres not stated) | > 10 | Stimulation (L1210 [6]): 126% |
| CC[C@]12C=C(C(=O)OC)c3c(CC4Nc5c(F)cccc5C(Nc5ccccc5F)C4c4c5n(c6ccccc46)[C@H]4N(O)CCC[C@@]4(CC)C=C5C(=O)OC)c4ccccc4n3[C@H]1N(O)CCC2 (some centres not stated) | 14.1 | – |
| CC[C@]12C=C(C(=O)OC)c3c(CC4Nc5c(Cl)cccc5C(Nc5ccccc5Cl)C4c4c5n(c6ccccc46)[C@H]4N(O)CCC[C@@]4(CC)C=C5C(=O)OC)c4ccccc4n3[C@H]1N(O)CCC2 (some centres not stated) | > 10 | – |
| CC[C@]12C=C(C(=O)OC)c3c(CC4Nc5cc(OC)c(OC)c(OC)c5CC4c4c5n(c6ccccc46)[C@H]4N(O)CCC[C@@]4(CC)C=C5C(=O)OC)c4ccccc4n3[C@H]1N(O)CCC2 (some centres not stated) | 2.4 | Cells (L1210 [5]): 61% |
| CC[C@]12C=C(C(=O)OC)c3c(CC4Nc5ccc(C(F)(F)F)cc5C(Nc5ccc(C(F)(F)F)cc5)C4c4c5n(c6ccccc46)[C@H]4N(O)CCC[C@@]4(CC)C=C5C(=O)OC)c4ccccc4n3[C@H]1N(O)CCC2 (some centres not stated) | > 10 | Stimulation (L1210 [6]): 152% |
| CC[C@]12C=C(C(=O)OC)c3c(CCNc4ccc(F)cc4)c4ccccc4n3[C@H]1N(O)CCC2 | 15.4 | – |
